Measurements taken from patent publication US20230346743A1, “COMBINATION CANCER THERAPIES” (The Board of Regents of the University of Oklahoma, priority 2018, published 2023).

Legend:
Mycobacterium bovis BCG = conditions: Table of Brown et al., 2004; cited from earlier work
SKOV3 R273H = assay: MTT cytotoxicity assay; format: cell-based; conditions: Homo sapiens, SK-OV-3; SKOV3 permanently transfected with R273H m-p53, MTT
Procedure: Cells plated at 2000 cells/well in 96 well microtiter plates were incubated for 36-48 h and treated with a range of doses and combinations of SHetA2 and PRIMA-1 or PRIMA-1^MET, or the same volume of DMSO solvent for 72 h of incubation. The percentage of growth for single drug treatments or fold effect (1 - ratio of treated/untreated growth) was measured using the CellTiter 96 AQueous Non-Radioactive Cell Proliferation Assay (Promega, Madison, WI, USA) and the BioTeK SYNERGY H1 (BioTeK, Winooski, VT, USA). Each experiment was performed in triplicate and repeated 2-3 times.
The potencies (IC50′s) of SHetA2 or PRIMA-1 were determined using GraphPad Prism 6 software analysis of average MTT Optical Density vs drug dose. […] Single drug treatments at doses surrounding the IC50 values were evaluated parallel. All treatments were performed in triplicate and averages used to draw isobolograms and calculate combination indices (CI) and dose-reduction indices (DRIs) using CompuSyn Software according to the Chou and Talalay method (op cit). All experiments were repeated at least twice for each cell line to confirm results.

parental SKOV-3 cells = assay: MTT cytotoxicity assay; format: cell-based, human; conditions: parental SKOV-3 p53 null cells
TP21 gene = assay: qRT-PCR of TP21 in SKOV3 cells; format: cell-based, human; conditions: SKOV3 parental (p53 null) and R273H m-p53 cells; SHetA2 10 µM, PRIMA-1 20 µM, 16 h
p21 = assay: Western blots of p21 in ovarian cancer cell lines; format: cell-based, human; conditions: A2780, SKOV3, SKOV3 R273H, SKOV3 R248W
Procedure: Proteins were extracted from cell cultures using M-PER mammalian protein extraction reagent (ThermoFisher, Waltham, MA, USA) and volumes corresponding to 30 µg determined with BCA reagent (ThermoFisher, Waltham, MA, USA) were electrophoresed into a SDS-PAGE gel and transferred to PVDF membranes. Membranes were blocked (5% dry skim milk powder in TBST buffer) for at least 1 h or overnight, washed thrice with TBST and then incubated with primary antibody: p53 DO-1, β-actin, histone H3, GAPDH (Santa Cruz Biotechnology, Dallas, TX, USA) and mortalin, Tom20, V5 tag antibodies, p21, PARP, SLC7A11, caspase 3 (Cell Signaling Technology, Danvers, MA, USA) for at least 1 h or overnight. After three washes, membranes were incubated with anti-mouse HRP conjugated (Santa Cruz Biotechnology, Dallas, TX, USA) or anti-Rabbit HRP conjugated (Cell Signaling Technology, Danvers, MA, USA) for 40 min. Membranes then were washed and developed with ECL reagents (BioRad, Hercules, CA, USA). Bands were imaged and quantified (ChemiDoc imaging system with Image Lab Software/BioRad).

[1] = tested on: MESOV human ovarian cancer cells; assay: Tumor establishment after intraperitoneal injection of MESOV cells (secondary chemoprevention model); format: in vivo; conditions: nu/nu mice, MESOV i.p.
Procedure: Four-week-old female athymic nude mice (NCr-Foxn1^nu) were obtained from Taconic Biosciences under an approved Institutional Animal Care and Use Committee (IACUC) protocol. Mice were acclimatized for two weeks, fed with a standard diet and ear tagged during the acclimatization period. The timing to tumor development after intraperitoneal injection with various amounts of MESOV cells was determined in a pilot study prior. In the intervention experiment, 6-week-old mice were injected with 20 million MESOV human ovarian cancer cells in their intraperitoneal region. Drug treatment was initiated 4 weeks after the injection of cancer cells. Mice were randomized to four treatment groups before the start of treatment based on their body weight. There was no significant (one-way ANOVA, p >0.999) difference in body weight between groups at the start of treatment. Twelve mice were allocated to each group based on the power analysis performed while designing experiment. […] Controls were gavaged with Kolliphor HS15 (30% in water). […] (10 mg/kg) was dissolved in phosphate buffered saline and injected into the peritoneum of mice every other day. Initially SHetA2 dosing was administered every day for two weeks in SHetA2 alone and drug combination groups, and then switched to every other day for the next three weeks due to the stress caused to the mice by daily gavage. Oral gavaging was performed with sterile disposable plastic feeding tubes 20 ga × 38 mm (Instech Laboratories, Inc., Plymouth Meeting, PA, USA). Three mice in the drug combination group died after two weeks of drug treatment due to gavaging incidents. Body weights were recorded and animal health was monitored weekly. After the end of drug intervention period, all mice were euthanized by CO2 asphyxiation followed by exsanguination, their tumors and other vital organs were collected for further analysis. After measuring the total tumor weight, a portion of the tumors were snap frozen in liquid nitrogen and another portion was formalin fixed. The formalin fixed tissue samples were paraffin embedded, sectioned and stained with hematoxylin and eosins for histology studies. An experienced pathologist reviewed blinded histology slides for kidney and liver toxicity. Presence or absence of tumor at the end of the treatment period was used as the primary outcome measure. […] Two by two logistic regression was used to compare the four treatment groups (Untreated control, SHetA2, […] combination) in the study. Mice in the first 3 groups had complete data, while 3 mice in the combo group died early and had zero tumor weights. […]

[2] = Toxicity in the MESOV mouse model (body weight, ascites, kidney and liver histology); format: in vivo
Procedure: Four-week-old female athymic nude mice (NCr-Foxn1^nu) were obtained from Taconic Biosciences under an approved Institutional Animal Care and Use Committee (IACUC) protocol. Mice were acclimatized for two weeks, fed with a standard diet and ear tagged during the acclimatization period. The timing to tumor development after intraperitoneal injection with various amounts of MESOV cells was determined in a pilot study prior. In the intervention experiment, 6-week-old mice were injected with 20 million MESOV human ovarian cancer cells in their intraperitoneal region. Drug treatment was initiated 4 weeks after the injection of cancer cells. Mice were randomized to four treatment groups before the start of treatment based on their body weight. There was no significant (one-way ANOVA, p >0.999) difference in body weight between groups at the start of treatment. Twelve mice were allocated to each group based on the power analysis performed while designing experiment. The sample size was determined to provide over 80% power to detect a 915 mm^3 difference in tumor volume between PRIMA-1^MET treatment alone and the drug combination treatment using a two-sided 0.05 level t-test. SHetA2 was administered by gavage at 60 mg/kg in 30% Kolliphor HS15 (Sigma). Controls were gavaged with Kolliphor HS15 (30% in water). PRIMA-1^MET (10 mg/kg) was dissolved in phosphate buffered saline and injected into the peritoneum of mice every other day. Initially SHetA2 dosing was administered every day for two weeks in SHetA2 alone and drug combination groups, and then switched to every other day for the next three weeks due to the stress caused to the mice by daily gavage. Oral gavaging was performed with sterile disposable plastic feeding tubes 20 ga × 38 mm (Instech Laboratories, Inc., Plymouth Meeting, PA, USA). Three mice in the drug combination group died after two weeks of drug treatment due to gavaging incidents. Body weights were recorded and animal health was monitored weekly. After the end of drug intervention period, all mice were euthanized by CO2 asphyxiation followed by exsanguination, their tumors and other vital organs were collected for further analysis. After measuring the total tumor weight, a portion of the tumors were snap frozen in liquid nitrogen and another portion was formalin fixed. The formalin fixed tissue samples were paraffin embedded, sectioned and stained with hematoxylin and eosins for histology studies. An experienced pathologist reviewed blinded histology slides for kidney and liver toxicity.

R282W m-p53 = assay: P53 luciferase reporter assay in MESOV cells; format: cell-based, human; conditions: 60 µM PRIMA-1^MET, 24 h
Procedure: To determine the transcriptional activity of p53, MESOV cells were transfected with PG13-Luc plasmids. Approximately 5,000 transfected cells were seeded on to each well of 96-well plate and incubated overnight. These cells were treated with either control solvent, 5 µM SHetA2 or 60 µM PRIMA-1^MET for 24 h. Luciferase activity of the reporter was measured with the One-glo luciferase reporter assay kit (Promega, Madison, WI, USA) and a Biotek Synergy H1 plate reader (BioteK, Winooski, VT, USA). The MTT assay was performed in parallel cultures and used to normalize the p53 reporter activity to the amount of viable cells.

[3] = infusion in cancer patients; cited from earlier work
Cervical Cancer = assay: Dose reduction index at various fold effects in cervical cancer; format: cell-based, human; design: Palbociclib Dose: unit not given beside the values; conditions: cell line not named
Source text: Combination Indices (CI's) were derived to determine the level of synergy using the Chow and Talalay method. […] The Dose Reduction Indices (DRIs) were derived to determine the level of reduction for one drug that could be allowed by addition of the second drug at various fold effects (Fas) of the combination treatment (Table 16).

| SMILES | range (Mycobacterium bovis BCG) | other results |
| --- | --- | --- |
| CC(C)CCOc1ccc(NC(=S)Nc2ccc(OCCC(C)C)cc2)cc1 | 0.5-1.0 | – |
| COC(=O)c1ccc(C(=O)Oc2ccc3c(c2)OC(C)(C)C=C3C)cc1 | 2.0-4.0 | – |
| CCOC(=O)c1ccc(NC(=S)Nc2ccc3c(c2)C(C)(C)CC(C)(C)O3)cc1 | 5.0-10.0 | – |
| CC(=C/C=N/NC(N)=S)/C=C/c1ccc2c(c1)C(C)CC(C)(C)N2C (stereo not shown) | 10.0-20.0 | – |
| CC1(C)CC(C)(C)c2cc(NC(=S)Nc3ccc([N+](=O)[O-])cc3)ccc2O1 | 20.0-40.0 | – |
| CCOC(=O)c1ccc(NC(=S)Nc2ccc3c(c2)C(C)=CC(C)(C)N3C)cc1 | 20.0-40.0 | – |
| CCOC(=O)c1ccc(NC(=O)Nc2ccc3c(c2)C(C)(C)CC(C)(C)O3)cc1 | 20.0-40.0 | – |
| CC1=CC(C)(C)N(C)c2ccc(NC(=S)Nc3ccc([N+](=O)[O-])cc3)cc21 | 20.0-40.0 | – |
| CCOC(=O)c1ccc(NC(=O)Nc2ccc3c(c2)C(C)(C)CC(C)(C)S3)cc1 | 20.0-40.0 | – |
| CCOC(=O)c1ccc(NC(=O)Nc2ccc3c(c2)C(C)=CC(C)(C)N3C)cc1 | 20.0-40.0 | – |
| CCOC(=O)c1ccc(NC(=S)Nc2ccc3c(c2)C(C)(C)CC(C)(C)S3)cc1 | 20.0-40.0 | – |
| COc1ccc2c(c1NC(=S)Nc1ccc([N+](=O)[O-])cc1)C(C)(C)COC2(C)C | 20.0-40.0 | – |
| CCOC(=O)c1ccc(NC(=S)Nc2cccc3c2OC(C)(C)CC3(C)C)cc1 | 20.0-40.0 | – |
| COc1ccc2c(c1NC(=S)NC(=O)c1ccc([N+](=O)[O-])cc1)C(C)(C)COC2(C)C | 20.0-40.0 | – |
| CC1(C)CC(C)(C)c2cccc(NC(=S)Nc3ccc([N+](=O)[O-])cc3)c2O1 | 20.0-40.0 | – |
| CCOC(=O)c1ccc(NC(=O)Nc2cccc3c2OC(C)(C)CC3(C)C)cc1 | 20.0-40.0 | – |
| O=C1C2CCN(CC2)C1(CO)CO [PRIMA-1, 2,2-Bishydroxymethyl-1-azabicyclo[2.2.2]octan-3-one, reference compound] | – | IC50 (SKOV3 R273H): 40 µM; PRIMA-1 sensitivity (parental SKOV-3 cells): resistant; TP21 transcription (qRT-PCR) (TP21 gene): did not induce TP21 transcription; p21 protein (Western blot) (p21): only induced p21 protein expression in A2780 (wt p53) |
| COCC1(CO)C(=O)C2CCN1CC2 (stereo not shown) [PRIMA-1^MET, 2-(hydroxymethyl)-2-(methoxymethyl)-1-azabicyclo [2.2.2]octan-3-one] | – | OR for preventing tumor development (additive logistic regression model) [1]: 4.464; Tumor-free rates ([1]; SHetA2 60 mg/kg gavage, PRIMA-1^MET 10 mg/kg i.p., treatment from day 28 for 38 days): 25%; Kidney or liver toxicity (H & E histology) ([2]; mouse, in vivo, ip): did not cause kidney or liver toxicity; Average body weights compared with mock group ([2]; nu/nu mice, MESOV i.p.): significantly higher than the mock group; Effects on body weight or ascites (abdominal size) ([2]; nu/nu mice, MESOV i.p.): no significant effects on body weight or ascites; p53 transcriptional activity (PG13-Luc reporter) (R282W m-p53): reactivation of R282W m-p53 in MESOV was observed; Clinical safety [3]: relatively safe with fully reversible central nervous system-related side effects |
| CC(=O)c1c(C)c2cnc(Nc3ccc(N4CCNCC4)cn3)nc2n(C2CCCC2)c1=O [Palbociclib, reference compound] | – | Palbociclib Dose (Cervical Cancer; Fold Effect (Fa) 0.05): 7.16; Palbociclib Dose (Cervical Cancer; Fold Effect (Fa) 0.75): 24.03; Palbociclib Dose (Cervical Cancer; Fold Effect (Fa) 0.90): 80.72; Palbociclib Dose (Cervical Cancer; Fold Effect (Fa) 0.95): 184.00 |
